Measured values reported in the supplement of paper PMC10307832.

Legend:
Assay in all cases: relative viability (nuclei count vs DMSO), 5 days (fraction); higher = more cells survive
HCC-44 = system: HCC-44
Summary of the method: (§1)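 Lung cancer cell lines were pin-tool dosed in 1536-well plates on the day after seeding, with either a lone drug or a fixed anchor-drug dose plus five library-drug doses (not always all listed) in √10 steps. Nuclei were counted on 4× images after 5 days. Relative viability is the ratio of treated-well to vehicle-well nuclei counts, with each value a median of duplicate plates.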

NCI-H1648 = system: NCI-H1648
Summary of the method: as §1

NCI-H1395 = system: NCI-H1395
Summary of the method: as §1

IA-LM = system: IA-LM
Summary of the method: as §1

NCI-H1299 = system: NCI-H1299
Summary of the method: as §1

EKVX = system: EKVX
Summary of the method: as §1

NCI-H1755 = system: NCI-H1755
Summary of the method: as §1

LCLC-103H = system: LCLC-103H
Summary of the method: as §1

NCI-H1703 = system: NCI-H1703
Summary of the method: as §1

UMC-11 = system: UMC-11
Summary of the method: as §1

EBC-1 = system: EBC-1
Summary of the method: as §1

HCC-15 = system: HCC-15
Summary of the method: as §1

A549 = system: A549
Summary of the method: as §1

Calu-6 = system: Calu-6
Summary of the method: as §1

With `Nc1ccn([C@@H]2O[C@H](CO)[C@@H](O)[C@@H]2O)c(=O)n1` [Cytarabine] + O=C(c1cc(Cc2n[nH]c(=O)c3ccccc23)ccc1F)N1CCN(C(=O)C2CC2)CC1 [Olaparib] (partner 8 µM) as the compound, how does the relative viability (HCC-44; first compound 0.005 µM) read?
The relative viability was 1.03.

And the relative viability (HCC-44; first compound 0.01581 µM)?
Its relative viability is 1.05.

And the relative viability (HCC-44; first compound 0.05 µM)?
The relative viability was 0.975.

And the relative viability (HCC-44; first compound 0.1581 µM)?
Its relative viability is 0.896.

What about the relative viability (HCC-44; first compound 0.5 µM) of the same compound?
Its relative viability is 0.848.

What about the relative viability (NCI-H1648; first compound 0.005 µM) of the same compound?
The relative viability was 0.904.

What about the relative viability (NCI-H1648; first compound 0.01581 µM) of the same compound?
Its relative viability is 0.793.

And the relative viability (NCI-H1648; first compound 0.05 µM)?
The relative viability was 0.954.

What about the relative viability (NCI-H1648; first compound 0.1581 µM) of the same compound?
Its relative viability is 0.319.

And the relative viability (NCI-H1648; first compound 0.5 µM)?
The relative viability was 0.377.

What about the relative viability (NCI-H1395; first compound 0.005 µM) of the same compound?
Its relative viability is 0.463.

What about the relative viability (NCI-H1395; first compound 0.01581 µM) of the same compound?
Its relative viability is 0.432.

And the relative viability (NCI-H1395; first compound 0.05 µM)?
Its relative viability is 0.396.

And the relative viability (NCI-H1395; first compound 0.1581 µM)?
The relative viability was 0.41.

What about the relative viability (NCI-H1395; first compound 0.5 µM) of the same compound?
The relative viability was 0.335.

What about the relative viability (IA-LM; first compound 0.005 µM) of the same compound?
Its relative viability is 0.626.

And the relative viability (IA-LM; first compound 0.01581 µM)?
The relative viability was 0.714.

And the relative viability (IA-LM; first compound 0.05 µM)?
Its relative viability is 0.55.

What about the relative viability (IA-LM; first compound 0.1581 µM) of the same compound?
Its relative viability is 0.372.

And the relative viability (IA-LM; first compound 0.5 µM)?
The relative viability was 0.268.

And the relative viability (NCI-H1299; first compound 0.005 µM)?
The relative viability was 0.991.

What about the relative viability (NCI-H1299; first compound 0.01581 µM) of the same compound?
Its relative viability is 0.93.

What about the relative viability (NCI-H1299; first compound 0.05 µM) of the same compound?
The relative viability was 0.987.

What about the relative viability (NCI-H1299; first compound 0.1581 µM) of the same compound?
Its relative viability is 0.985.

And the relative viability (NCI-H1299; first compound 0.5 µM)?
The relative viability was 0.94.

And the relative viability (EKVX; first compound 0.005 µM)?
Its relative viability is 0.819.

And the relative viability (EKVX; first compound 0.01581 µM)?
Its relative viability is 0.665.

And the relative viability (EKVX; first compound 0.05 µM)?
The relative viability was 0.695.

What about the relative viability (EKVX; first compound 0.5 µM) of the same compound?
The relative viability was 0.234.

And the relative viability (NCI-H1755; first compound 0.005 µM)?
The relative viability was 0.893.

And the relative viability (NCI-H1755; first compound 0.01581 µM)?
Its relative viability is 0.889.

What about the relative viability (NCI-H1755; first compound 0.05 µM) of the same compound?
Its relative viability is 0.584.

What about the relative viability (NCI-H1755; first compound 0.1581 µM) of the same compound?
Its relative viability is 0.398.

And the relative viability (NCI-H1755; first compound 0.5 µM)?
Its relative viability is 0.342.

What about the relative viability (LCLC-103H; first compound 0.005 µM) of the same compound?
Its relative viability is 0.717.

What about the relative viability (LCLC-103H; first compound 0.01581 µM) of the same compound?
The relative viability was 0.725.

And the relative viability (LCLC-103H; first compound 0.05 µM)?
Its relative viability is 0.906.

What about the relative viability (LCLC-103H; first compound 0.1581 µM) of the same compound?
Its relative viability is 0.803.

And the relative viability (LCLC-103H; first compound 0.5 µM)?
The relative viability was 0.792.

What about the relative viability (NCI-H1703; first compound 0.005 µM) of the same compound?
The relative viability was 0.338.

And the relative viability (NCI-H1703; first compound 0.01581 µM)?
The relative viability was 0.302.

What about the relative viability (NCI-H1703; first compound 0.05 µM) of the same compound?
Its relative viability is 0.196.

What about the relative viability (NCI-H1703; first compound 0.1581 µM) of the same compound?
Its relative viability is 0.0956.

And the relative viability (NCI-H1703; first compound 0.5 µM)?
Its relative viability is 0.0977.

And the relative viability (UMC-11; first compound 0.005 µM)?
Its relative viability is 0.345.

What about the relative viability (UMC-11; first compound 0.01581 µM) of the same compound?
The relative viability was 0.329.

And the relative viability (UMC-11; first compound 0.05 µM)?
The relative viability was 0.302.

What about the relative viability (UMC-11; first compound 0.1581 µM) of the same compound?
Its relative viability is 0.248.

And the relative viability (UMC-11; first compound 0.5 µM)?
The relative viability was 0.218.

And the relative viability (EBC-1; first compound 0.005 µM)?
The relative viability was 0.725.

What about the relative viability (EBC-1; first compound 0.01581 µM) of the same compound?
The relative viability was 0.569.

What about the relative viability (EBC-1; first compound 0.05 µM) of the same compound?
The relative viability was 0.476.

What about the relative viability (EBC-1; first compound 0.1581 µM) of the same compound?
Its relative viability is 0.375.

What about the relative viability (EBC-1; first compound 0.5 µM) of the same compound?
The relative viability was 0.241.

And the relative viability (HCC-15; first compound 0.005 µM)?
The relative viability was 0.706.

What about the relative viability (HCC-15; first compound 0.01581 µM) of the same compound?
Its relative viability is 0.655.

What about the relative viability (HCC-15; first compound 0.05 µM) of the same compound?
The relative viability was 0.841.

What about the relative viability (HCC-15; first compound 0.1581 µM) of the same compound?
The relative viability was 0.649.

And the relative viability (HCC-15; first compound 0.5 µM)?
Its relative viability is 0.539.

What about the relative viability (A549; first compound 0.005 µM) of the same compound?
The relative viability was 0.318.

What about the relative viability (A549; first compound 0.01581 µM) of the same compound?
Its relative viability is 0.242.

And the relative viability (A549; first compound 0.05 µM)?
Its relative viability is 0.0968.

And the relative viability (A549; first compound 0.1581 µM)?
The relative viability was 0.0579.

And the relative viability (A549; first compound 0.5 µM)?
The relative viability was 0.0331.

And the relative viability (Calu-6; first compound 0.005 µM)?
The relative viability was 0.597.

And the relative viability (Calu-6; first compound 0.01581 µM)?
Its relative viability is 0.488.

What about the relative viability (Calu-6; first compound 0.05 µM) of the same compound?
Its relative viability is 0.41.

What about the relative viability (Calu-6; first compound 0.1581 µM) of the same compound?
The relative viability was 0.337.

And the relative viability (Calu-6; first compound 0.5 µM)?
The relative viability was 0.225.

What does the source list for `CC(=O)O[C@@]12CO[C@@H]1C[C@H](O)[C@@]1(C)C(=O)[C@H](O)C3=C(C)[C@@H](OC(=O)[C@H](O)[C@@H](NC(=O)OC(C)(C)C)c4ccccc4)C[C@@](O)([C@@H](OC(=O)c4ccccc4)[C@H]21)C3(C)C` [Docetaxel] + NC(=O)Nc1cc(-c2cccc(F)c2)sc1C(=O)N[C@H]1CCCNC1 [AZD7762] (partner 0.2 µM)?
relative viability (HCC-44; first compound 0.0002 µM): 1.06; relative viability (HCC-44; first compound 0.000632 µM): 1.07; relative viability (HCC-44; first compound 0.002 µM): 1.07; relative viability (HCC-44; first compound 0.006325 µM): 0.525; relative viability (HCC-44; first compound 0.02 µM): 0.497; relative viability (NCI-H1648; first compound 0.0002 µM): 0.589; relative viability (NCI-H1648; first compound 0.000632 µM): 0.701; relative viability (NCI-H1648; first compound 0.002 µM): 0.431; relative viability (NCI-H1648; first compound 0.006325 µM): 0.248; relative viability (NCI-H1648; first compound 0.02 µM): 0.217; relative viability (NCI-H1395; first compound 0.0002 µM): 0.421; relative viability (NCI-H1395; first compound 0.000632 µM): 0.38; relative viability (NCI-H1395; first compound 0.002 µM): 0.379; relative viability (NCI-H1395; first compound 0.006325 µM): 0.343; relative viability (NCI-H1395; first compound 0.02 µM): 0.32; relative viability (EKVX; first compound 0.0002 µM): 0.736; relative viability (EKVX; first compound 0.000632 µM): 0.638; relative viability (EKVX; first compound 0.002 µM): 0.407; relative viability (EKVX; first compound 0.006325 µM): 0.249; relative viability (EKVX; first compound 0.02 µM): 0.132; relative viability (NCI-H1755; first compound 0.0002 µM): 0.488; relative viability (NCI-H1755; first compound 0.000632 µM): 0.396; relative viability (NCI-H1755; first compound 0.002 µM): 0.324; relative viability (NCI-H1755; first compound 0.006325 µM): 0.401; relative viability (NCI-H1755; first compound 0.02 µM): 0.352; relative viability (LCLC-103H; first compound 0.0002 µM): 0.771; relative viability (LCLC-103H; first compound 0.000632 µM): 0.826; relative viability (LCLC-103H; first compound 0.002 µM): 0.654; relative viability (LCLC-103H; first compound 0.006325 µM): 0.508; relative viability (LCLC-103H; first compound 0.02 µM): 0.372; relative viability (NCI-H1703; first compound 0.000632 µM): 0.121; relative viability (NCI-H1703; first compound 0.002 µM): 0.107; relative viability (NCI-H1703; first compound 0.006325 µM): 0.114; relative viability (NCI-H1703; first compound 0.02 µM): 0.0729; relative viability (HCC-15; first compound 0.0002 µM): 1.18; relative viability (HCC-15; first compound 0.000632 µM): 1.02; relative viability (HCC-15; first compound 0.002 µM): 0.433; relative viability (HCC-15; first compound 0.006325 µM): 0.289; relative viability (HCC-15; first compound 0.02 µM): 0.256
